Values quoted from earlier work, collected in patent publication US20220288054A1, “COMPOSITIONS AND METHODS TO TREAT NON-ALCOHOLIC FATTY LIVER DISEASES (NAFLD)” (Coherus Biosciences, Inc., priority 2019, published 2022).

Experiments:
[1] = monotherapy, STELLAR-4 phase 3
diabetic rodents = settings: administered to diabetic rodents

Q: Which safety profile (289 patients, 1 year of therapy) does the source give for CCCCOCCOc1ccc(-c2ccc3c(c2)/C=C(/C(=O)Nc2ccc([S@@+]([O-])Cc4cncn4CCC)cc2)CCCN3CC(C)C)cc1 [Cenicriviroc] here?
A: The safety profile was “excellent safety profile”.

Q: What about the liver fibrosis improvement (289 patients, after 1 year of therapy) of the same molecule?
A: Its liver fibrosis improvement is “consistently demonstrated liver fibrosis improvement”.

Q: And the antifibrotic activity (adult patients with NASH and fibrosis, phase 2b)?
A: The antifibrotic activity was “provided antifibrotic activity”.

Q: And the tolerability (adult patients, oral, phase 2b)?
A: The tolerability was “well-tolerated”.

Q: With Cc1cc(F)c(C(=O)Nc2cccc(-c3nncn3C(C)C)n2)cc1-n1cnc(C2CC2)c1 [selonsertib] as the molecule, how does the primary endpoint [1] read?
A: Its primary endpoint is “failed to meet the primary endpoint”.

B1: FGF21: amino acid sequence shown in FIG. 3 (SEQ ID NO: 3) (protein, listed as Homo sapiens)
chain: MDSDETGFEHSGLWVSVLAGLLLGACQAHPIPDSSPLLQFGGQVRQRYLYTDDAQQTEAHLEIREDGTVGGAADQSPESLLQLKALKPGVIQILGVKTSRFLCQRPDGALYGSLHFDPEACSFRELLLEDGYNVYQSEAHGLPLHLPGNKSPHRDPAPRGPARFLPLPGLPPALPEPPGILAPQPPDVGSSDPLSMVGPSQGRSPSYAS
Q: Which results are given for B1?
A: glucose uptake (mouse adipocytes): activates glucose uptake; blood glucose and triglyceride levels (diabetic rodents): lower blood glucose and triglyceride levels
